US20110160266A1, “Novel Anti-Arrhythmia Agent” (THE UAB RESEARCH FOUNDATION, priority 2008, published 2011)
“Also recorded” adds a separate entry of the source. Marks after values point to notes of the source that are not given here.

Assays:
isolated rat left atria = assay: Pharmacological activation of spontaneous tachycardic activity (STA): calcium-loading agents with or without 2-APB; conditions: for ectopic activity / mechanical stability without 2-APB / effect on left atrial force of contraction: agent without 2-APB, at the concentration given; for T0.5R (time to 50% relaxation) / T0.9R (time to 90% relaxation) / TPT (time to peak tension) / SMA Rate: concentrations per footnote; for Force Post: mg force per g atrial wet weight following a 10 min exposure to the agent; for Force Pre: mg force per g atrial wet weight prior to exposure to the agent; for SMA Rate: spontaneous atrial mechanical events
Description: Male Sprague-Dawley rats (325-400 g) were anesthetized with intra-peritoneal pentobarbital (0.1 g/kg). Their right and left atria were isolated, superfused at 30° C. in Krebs-Henseleit buffer, and nearly isometric forces of contraction were measured from these muscles (Wolkowicz et al., 2002). 2-APB was prepared as a 150 mM dimethyl sulfoxide stock.
Left atria (n=8 per group) were paced at 3 Hz and (i) titrated with 0 to 30 nM isoproterenol (Ahlquist, 1970) or (ii) exposed to 3 μM forskolin (Laurenza et al., 1980). Left atrial force and frequency of contraction, the time to peak tension and relaxation times were recorded after a 3-5 min exposure to forskolin or to any concentration of isoproterenol. The 3 Hz pacing stimulus was interrupted at the end of these protocols to measure SMA. […]
Left atrial contraction and relaxation times were recorded at these five times, the pacing stimulus was stopped and rates of SMA were recorded. […] Atrial mechanical function was measured at these four times; the pacing stimulus then was stopped and rates of SMA were recorded.
Left atria (n=6 per group) were paced at 3 Hz, titrated with 0 to 300 nM (−)BayK 8644 ([…]-1,4-Dihydro-2,6-dimethyl-5-nitro-4-[2-(trifluormethyl)phenyl]-3-pyridinecarboxylic acid methyl ester; Franckowiak et al. 1985) or FPL-64176 (2,5-Dimethyl-4-[2-(phenylmethyl)benzoyl]-1H-pyrrole-3-carboxlic acid methyl ester); Zheng et al., 1991) and their mechanical function and rates of SMA were recorded after a 5 min exposure to any concentration of slow calcium channel activator.
Atrial mechanical function was recorded at this time; the pacing stimulus then was stopped and rates of SMA were recorded. […]
Left atria (n=7) were paced at 3 Hz, treated with 120 μM ouabain (Illanes and Marshall, 1964), and any change in mechanical function was recorded at a new steady state, ˜10 min later. […]

rat left atria = assay: Reversal or prevention of 2-APB-induced SMA in superfused rat left atria; conditions: for effect on 2-APB-induced sporadic ectopic activity (SMA): titration after appearance of SMA, absence of pacing
Description: (A) Titration curve of ranolazine reversal of SMA in superfused left atrial appendage. Superfused appendages (n=7) were treated with 2-APB and following the appearance of SMA they were titrated with increasing concentrations of ranolazine for 3-5 min at any concentration. Rates of SMA in the absence of pacing were recorded. (B) Typical raw mechanical data for an appendage treated with 2-APB and then with 0, 10 or 80 μM ranolazine. All data are in the absence of pacing. […]
To test whether an anion transport inhibitor affected SMA, atria (n=7) were paced at 0.1 Hz in KH and exposed to 15 μM 2-APB. Following the appearance of SMA, they were titrated with 100 to 400 μM DIDS for 3 to 5 min at each concentration. Whether SMA occurred at the end of each titration period was recorded.
In these experiments, a 2-APB model system was used to simulate abnormal automaticity. Specifically, paced (0.1 Hz) superfused left atria were treated with 2-APB (20 μM) and the pacing stimulus was stopped after the appearance of SMA. SKF-96365 (25 μM) was then added to the superfusate and the effect on SMA was measured.
Additional experiments determined the concentration-dependence of SKF-96365 inhibtion of SMA. These experiments were performed as described above except that various concentrations of SKF-96365 were added to the left atrial superfusate (about 10-65 μM).
In these experiments, a 2-APB model system was used to simulate abnormal automaticity. Specifically, superfused left atria were exposed to 0 or to 50 μM SKF-96365 for 10 min. Following this pre-incubation, muscles were titrated with increasing concentrations of 2-APB (0-30 μM) and the rate of SMA was measured about 10 min later in the absence of pacing.

Row | Compound | ectopic activity / mechanical stability without 2-APB (isolated rat left atria) | effect on left atrial force of contraction (isolated rat left atria) | T0.5R (time to 50% relaxation) (isolated rat left atria) | T0.9R (time to 90% relaxation) (isolated rat left atria) | TPT (time to peak tension) (isolated rat left atria) | Force Post (isolated rat left atria) | Force Pre (isolated rat left atria) [mg/gww] | SMA Rate (isolated rat left atria) [SMEs per minute] | DIDS concentration that reversed SMA completely (rat left atria; 15 μM 2-APB, 0.1 Hz, 3 to 5 min at each DIDS concentration) [µM] | effect on 2-APB-induced sporadic ectopic activity (SMA) (rat left atria)
1 | ryanodine | no STA occurs | Time-dependent decreases in force of contraction |  |  |  |  |  |  |  | 
2 | COC(=O)c1c(C)[nH]c(C)c1C(=O)c1ccccc1Cc1ccccc1 [FPL-64176, 2,5-Dimethyl-4-[2-(phenylmethyl)benzoyl]-1H-pyrrole-3-carboxlic acid methyl ester] | does not produce ectopic activity | increases their force of contraction | 35.3 msc | 73.3 msc | 52.8 msc | 68* mg/gww | 30 | 0 |  | 
3 | O=S(=O)(O)c1cc(N=C=S)ccc1C=Cc1ccc(N=C=S)cc1S(=O)(=O)O [DIDS, 4,4′-diisothiocyanatostilbene-2,2′-disulfonic acid] |  |  |  |  |  |  |  |  | > 300 | 
4 | C[C@@H]1O[C@@H](O[C@H]2C[C@@H](O)[C@]3(CO)[C@H]4[C@H](O)C[C@]5(C)[C@@H](C6=CC(=O)OC6)CC[C@]5(O)[C@@H]4CC[C@]3(O)C2)[C@H](O)[C@H](O)[C@H]1O [ouabain] | does not produce ectopic activity; also recorded: does not affect their mechanical stability | increases their force of contraction; also recorded: doubles their force of contraction |  |  |  |  |  |  |  | 
5 | COC(=O)C1=C(C)NC(C)=C([N+](=O)[O-])[C@H]1c1ccccc1C(F)(F)F [BayK 8644, (45)-1,4-Dihydro-2,6-dimethyl-5-nitro-4-[2-(trifluormethyl)phenyl]-3-pyridinecarboxylic acid methyl ester] | does not produce ectopic activity | increases their force of contraction | 35.2 msc | 73.2 msc | 54.1 msc | 83* mg/gww | 33 | 0 |  | 
6 | CCN(CC)CC(=O)Nc1c(C)cccc1C [lidocaine] |  |  |  |  |  |  |  |  |  | suppress this arrhythmic activity
7 | C=C[C@@]1(C)CC(=O)[C@]2(O)[C@@]3(C)[C@@H](O)CCC(C)(C)[C@@H]3[C@H](O)[C@H](OC(C)=O)[C@@]2(C)O1 [forskolin] |  |  | 28.7^‡ msc | 58.4^‡ msc | 44.6* msc | 62* mg/gww | 21 | 0 |  | 
8 | O=C(NCC1CCCCN1)c1cc(OCC(F)(F)F)ccc1OCC(F)(F)F (centres unmarked) [flecainide] |  |  |  |  |  |  |  |  |  | suppress this arrhythmic activity
